In patent US10322177B2, “Activation of immune-related signaling pathways in cells via optofection” (Nant Holdings IP, LLC, priority 2015, dated 2019):

Legend:
Format in all cases: cell-based, murine
[1] = test system: RAW-Lucia ISG cells; assay: RAW-Lucia ISG luciferase reporter, gold nanoparticle optofection of cGAMP (photomicrographs, FIGS. 2A-2C)
Excerpt: FIGS. 2A-2C illustrate experimental evidence indicating the validity of the disclosed techniques though the use of RAW-Lucia® ISG cells that express luciferase when a Type I IFN response pathway is activated (see FIG. 3) by a CDN.
FIG. 2A represents an experiment where gold nanoparticles lacking target cell ligands (here ligand for […]) and cGAMP cargo material are introduced to the cell population. No electro-magnetic stimulation is applied.
FIG. 2B represents an experiment where gold nanoparticles lacking target cell ligands (ligand for CD14) and cGAMP cargo material are introduced to the cell population. In this experiment, the nanoparticles were exposed to 3 mJ pulsed laser. […] The luciferase expression in FIG. 2B is considered to be present in response to random proximity of the gold nanoparticles to cells when the gold nanoparticles are excited by the laser.
FIG. 2C represents an experiment where gold nanoparticles having a CD14 ligand and cGAMP cargo material are both introduced to the cell population. In this case, the nanoparticles attach to the target cells.
The immune response induced in the experiments shown in FIGS. 2A-2C is evidenced by production of luciferase in specifically targeted cells. A mentioned previously, the specifically target cells selected for the experiments were RAW-Lucia™ ISG cells commercially available from InvivoGen® (see URL www.invivogen.com/raw-lucia-isg). The RAW-Lucia cells express luciferase gene (Lucia) through various IFN-stimulated response elements (ISRE) as indicated in FIG. 3. Thus, when an IFN response is stimulated, the cells express the luciferase gene. Of specific note, when CDNs are introduced to the RAW-Lucia cells, the IFN response is activated causing expression of the luciferase gene. Therefore, FIG. 2C clearly provides evidence via substantial luciferase expression that the disclosed technique of causing a cell to uptake CDNs (e.g., cGAMP, etc.) via externally generated poration is capable of inducing an immune response. Such result is not necessarily predictable as laser excitation and concomitant cavitation events may damage or interfere with signal transduction events.

[2] = test system: RAW-Lucia target cells; assay: Relative luciferase activity of RAW-Lucia cells under treatment configurations (FIG. 4)
Method: (§1) FIG. 4 provides further experimental evidence with respect to the efficiency of cargo delivery to the specific target cells. The two charts show the relative luciferase activity of RAW-Lucia target cells four hours after treatment and 24 hours after treatment under different treatment configurations.
Treatment configuration 1 represents a cell population having no treatment where no nanoparticles and no laser are introduced to the RAW-Lucia cell population.
Treatment configuration 2 represents a cell population treated with CD14 ligand coated gold nanoparticles and a 10 uM cGAMP solution.
Treatment configuration 3 is similar to treatment configuration 2 with the exception that a 1 uM cGAMP solution was introduced to the cell population rather than a 10 uM cGAMP solution.
Treatment configuration 4 includes treating the target cells with just nanoparticles coated with CD14 ligand followed by application of laser stimulation.
Treatment configuration 5 is similar to Treatment 4, although lacking laser stimulation.
Treatment configuration 6 includes treating the cell population with just a 10 uM cGAMP solution without nanoparticles or application of laser stimulation.

[3] = test system: RAW-Lucia target cells; assay: Relative luciferase activity of RAW-Lucia cells after BLAST delivery (FIG. 5); conditions: Treatment 2: BLAST, 2.5 uM cGAMP solution; 4 hour and 24 hour
Method: as §1, with “FIG. 5” for “FIG. 4”, “target cells with respect to using a biophotonic laser-assisted surgery tool (BLAST, as described in Nature Methods 12, 439-444 (2015)).” for “target cells.”, “charts of FIG. 5” for “charts”, “under three” for “under”
Treatment configuration 1 represents a control group where the cell population is not treated in order to provide a base line result.
Treatment configuration 2 leverages BLAST where the cell population is bathed in a 2.5 uM cGAMP solution.
Treatment configuration 3 includes co-incubation of the cell populations with a 2.5 uM cGAMP solution. However, the cell population is not exposed to laser stimulation via BLAST.
It should be appreciated that FIG. 5 illustrates the efficacy of a method of inducing an interferon response in specific target cells, including target cells within a heterogeneous cell population. Free cyclic di-nucleotide cargo (i.e., cGAMP in the scenario of FIG. 5) was introduced to the cell population such that the cGAMP remained external to the target cells in a 2.5 uM solution. […]

[4] = gold nanoparticles having a CD14 ligand plus cGAMP, 2 mJ pulsed laser (FIG. 2C)

Nc1nc2c(ncn2[C@@H]2O[C@@H]3COP(=O)(O)O[C@H]4[C@@H](O)[C@H](n5cnc6c(N)ncnc65)O[C@@H]4COP(=O)(O)O[C@@H]2[C@@H]3O)c(=O)[nH]1 [cGAMP]
cell viability [1, 4]: substantially all cells retained viability
luciferase expression [1, 4]: nearly all cells express luciferase
luciferase expression ([1]; gold nanoparticles lacking target cell ligands plus cGAMP, 3 mJ pulsed laser (FIG. 2B)): some cells express luciferase
luciferase expression ([1]; gold nanoparticles lacking target cell ligands plus cGAMP, no electro-magnetic stimulation (FIG. 2A)): very little or negligible luciferase expression
relative luciferase activity ([2]; Treatment 2: CD14 ligand coated gold nanoparticles, 10 uM cGAMP solution, laser, 4 h and 24 h after treatment): significant luciferase activity
relative luciferase activity ([2]; Treatment 3: CD14 ligand coated gold nanoparticles, 1 uM cGAMP solution, laser, 4 h and 24 h after treatment): fairly similar to Treatment 2
relative luciferase activity ([2]; Treatment 6: 10 uM cGAMP solution only, no nanoparticles, no laser): reduced level of luciferase activity
relative luciferase activity [3]: significant luciferase activity
